# “And” between values parts separate entries of the source, which are not always exact repeats. Identical values can stand only once.
# Tested on: patients with chronic PTSD
# Assay: Example 2: randomized, double-blind, midazolam-controlled crossover trial of IV ketamine, symptom ratings
# Type: in vivo, human
# From the text: Patients with chronic PTSD were enrolled in a controlled study. […] Exclusion criteria included lifetime history of psychotic or bipolar disorder, current bulimia or anorexia nervosa, alcohol abuse or dependence in the previous three months, serious unstable medical illness or sleep apnea, active suicidal or homicidal ideation on presentation, or current use of any psychotropic medications. All patients underwent a physical examination and laboratory screening including routine hematologic, biochemical and urine toxicology testing, as well as an electrocardiogram to rule out unstable medical illness and active substance use. To receive the second IV infusion, a CAPS score of at least 50 was required prior to the second infusion. The Institutional Review Board at Mount Sinai approved the study, and informed consent was obtained from all study participants.
# Study participants were free of concomitant psychotropic medications for two weeks prior to randomization and for the duration of the study. For each procedure day, patients were assigned to receive a single IV infusion of ketamine hydrochloride (0.5 mg/kg) or midazolam (0.045 mg/kg), administered over 40 minutes. Order of infusions (ketamine-midazolam or midazolam-ketamine) was randomly assigned and administrations were two weeks apart. […] Only the research pharmacy was aware of drug identity, and all study personnel, including investigators, anesthesiologists, raters, patients and data analysts were blinded to randomization order.
# Following admission and an overnight fast, an indwelling catheter was placed in the antecubital vein of the non-dominant arm. Pulse, blood pressure, pulse-oximetry and ECG monitoring were instituted (see Murrough J et al. Antidepressant efficacy of ketamine in treatment-resistant major depression: a two-site, randomized controlled trial. The American Journal of Psychiatry. 2013 Oct. 1; 170(10):1134-42). Ratings were administered by a trained rater during the infusion and at 240 minutes after the start of the infusion. A different rater, blinded to the ratings during post-infusion on infusion, administered ratings at pre-infusion baseline, 24 hours (Day 1) post-infusion (before patients were discharged from the hospital), 48 hours (Day 2), 72 hours (Day 3), and 7 days (Day 7) post-infusion. Ratings were also administered at 10 and 13 days post-infusion, though data analyses focused on the first week post-infusion due to the expected duration of ketamine action. Patients were instructed to abstain from taking psychotropic medications and from using alcohol or substances of abuse for the duration of the trial. As described above, patients who scored ≥50 on the CAPS 2 weeks after the first infusion received an infusion of the second study drug.
# The primary outcome was PTSD symptom severity at 24 hours post-infusion, assessed with the Impact of Event Scale—Revised (IES-R). Twenty-four hours post-infusion was selected as the primary endpoint, as acute sedating and other side effects were expected to have resolved, while potential symptom improvement was expected to persist at 24 hours. Secondary outcome measures included the Montgomery-Asberg Depression Rating Scale (MADRS), the Quick Inventory of Depressive Symptomatology, Self-Report (QIDS-SR), and Clinical Global Impression-Severity (CGI-S) and -Improvement (GCI-I) scales administered by a study clinician at 24 hours, 48 hours, 72 hours and 7 days post-infusion. The IES-R was also administered at 48 hours, 72 hours, and 7 days post-infusion. Additionally, the CAPS was administered 7 days post-infusion.
# A mixed-model approach was employed to test effects of treatment, period, and carryover.
# [1] = by treatment group (drug given first)
# [2] = individual responder patients, after first infusion
# [3] = ketamine vs midazolam, cross-over 24 hours, n = 29
# [4] = ketamine vs midazolam, first infusion 24 hours, n = 41
# [5] = response = 50% improvement in IES-R score at 24 hours post-infusion
compound,measurement,setting,value
"CNC1(c2ccccc2Cl)CCCCC1=O (stereo not shown) [ketamine, 2-(2-chlorophenyl)-2-(methylamino)-cyclohexanone]","CAPS score, mean difference ketamine-midazolam","7 days post-infusion, p-value=0.20",8.7
same,decrease in CAPS score,"at 7 days, single infusion study",27 (sd=20)
same,"CAPS Total (Week 1), mean",[1],54.00
same,"CAPS Total (Week 2), mean",[1],56.21
same,"CGI-I (Week 1), mean",[1],3.22
same,"CGI-I (Week 2), mean",[1],3.15
same,"IES-R Total (Week 1), mean",[1],25.76
same,"IES-R Total (Week 2), mean",[1],25.67
same,CAPS Total (Week 1),[2],16 and 45 and 41 and 33 and 54 and 22 and 13
same,CAPS Total (Week 2),[2],11 (2×) and 25 and 28 and 19 and 44 and 45
same,CGI-I (Week 1),[2],2 (5×) and 3
same,CGI-I (Week 2),[2],2 (3×) and 3
same,IES-R Total (Day 10),[2],4 and 3 (3×) and 15 and 25.14 and 28
same,IES-R Total (Week 1),[2],1 and 8.38 and 10 and 2 and 18 and 17 and 3
same,IES-R Total (Week 2),[2],6 and 1 and 14 and 0 and 26 and 28 and 2
same,"IES-R, differences of least squares means estimate","ketamine vs midazolam, collapsed across 24, 48, 72 hours and seven days, first period, p=0.046",−8.32
same,"QIDS-SR, differences of least squares means estimate","ketamine vs midazolam, collapsed across time, first period, p=0.050",−2.73
same,"MADRS, differences of least squares means estimate","ketamine vs midazolam, collapsed across time, first period, p=0.052",−3.99
same,"CGI-I, mean difference",[3],1.2
same,"CGI-S, mean difference",[3],1.0
same,"IES-R Avoidance, mean difference",[3],4.8
same,"IES-R Hyperarousal, mean difference",[3],3.9
same,"IES-R Re-experiencing, mean difference",[3],4.0
same,"IES-R total, mean difference",[3],12.7
same,"MADRS, mean difference",[3],3.7
same,"QIDS, mean difference",[3],0.17
same,"CGI-I, mean difference",[4],0.80
same,"CGI-S, mean difference",[4],0.90
same,"IES-R Avoidance, mean difference",[4],3.3
same,"IES-R Hyperarousal, mean difference",[4],2.6
same,"IES-R Re-experiencing, mean difference",[4],2.6
same,"IES-R total, mean difference",[4],8.6
same,"MADRS, mean difference",[4],2.7
same,"QIDS, mean difference",[4],1.5
same,"IES-R_response No, Percent of total",of all 35 patients,25.71%
same,"IES-R_response Yes, Percent of total",of all 35 patients,28.57%
same,β of treatment assignment on IES-R score at 24 hours post-infusion,"period-1 analysis, 41 patients, ketamine vs midazolam, p=0.0496",6.5
same,"IES-R_response No, Frequency",[5],9
same,"IES-R_response Yes, Frequency",[5],10
same,"IES-R_response No, Row Pct",share of non-responders,45.00 Pct
same,"IES-R_response Yes, Row Pct",share of responders,66.67 Pct
same,"IES-R_response No, Col Pct",share of the treatment group,47.37 Pct
same,"IES-R_response Yes, Col Pct (responded after infusion)","share of the treatment group, 24 hours post-infusion",52.63%
